Laboratory results published in US20170348306A1, “METHODS OF TREATING CANCER” (GLAXOSMITHKLINE LLC, priority 2011, published 2017).

Columns and labels:
Assay in all cases: 6 day proliferation assay (assay 1)
Type in all cases: cell-based
1A2 = conditions: Homo sapiens, 144 h, 6 days, EZH2 WT, read-out: Compound A gIC50
Description: (§1) Cells were cultured in appropriate medium in flasks to 80-100% confluency. Cells were harvested, counted and plated at a pre-determined optimal seeding density ranging from 50 cells per well to 4000 cells per well depending on the growth characteristics of individual cell lines in 384-well tissue culture plates (Greiner #781090). Plates were then incubated overnight at 37° C., 5% CO2. Cells were treated with compound using a 20 point 1:2 fold dilution scheme with a final concentration of 0.15% DMSO. One column per plate contained cells treated with 0.15% DMSO only, and one column contained no cells to serve as background. Plates were incubated at 37° C., 5% CO2 for 6 days. A time zero (t0) reading was taken on the day of compound addition. To develop the plates, 25 μL of Cell Titer Glo (Promega #G7572) was added to each well and incubated at room temperature for 12 minutes. Luminescence was measured on the Tecan Safire2.
(§2) Data were analyzed using Assay Client software. Dose response curves were generated based on percent of growth compared to t0. Growth IC50 values were calculated using a 4 parameter logistic model.
(§3) In addition, further optimization of the EZH2 inhibition assay

BC-1 = conditions: Homo sapiens, BC1, 144 h, 6 days, EZH2 WT, read-out: Compound A gIC50
Description: as §1, §2, §3

BC-2 = conditions: Homo sapiens, 144 h, 6 days, EZH2 WT, read-out: Compound A gIC50
Description: as §1, §2, §3

BC-3 = conditions: Homo sapiens, 144 h, 6 days, EZH2 WT, read-out: Compound A gIC50
Description: as §1, §2, §3

CA46 = conditions: Homo sapiens, 144 h, 6 days, EZH2 WT, read-out: Compound A gIC50
Description: as §1, §2, §3

CROAP2 = conditions: Homo sapiens, CRO-AP2, 144 h, 6 days, EZH2 WT, read-out: Compound A gIC50
Description: as §1, §2, §3

CROAP5 = conditions: Homo sapiens, CRO-AP5, 144 h, 6 days, EZH2 WT, read-out: Compound A gIC50
Description: as §1, §2, §3

DB = conditions: Homo sapiens, 144 h, 6 days, EZH2 Y641N, read-out: Compound A gIC50
Description: as §1, §2, §3

DG75 = conditions: Homo sapiens, DG-75, 144 h, 6 days, EZH2 WT, read-out: Compound A gIC50
Description: as §1, §2, §3

DOHH2 = conditions: Homo sapiens, DOHH-2, 144 h, 6 days, EZH2 WT, read-out: Compound A gIC50
Description: as §1, §2, §3

Daudi = conditions: Homo sapiens, 144 h, 6 days, EZH2 WT, read-out: Compound A gIC50
Description: as §1, §2, §3

Farage = conditions: Homo sapiens, 144 h, 6 days, EZH2 WT, read-out: Compound A gIC50
Description: as §1, §2, §3

HDMyZ = conditions: Homo sapiens, 144 h, 6 days, EZH2 WT, read-out: Compound A gIC50
Description: as §1, §2, §3

HT = conditions: Homo sapiens, 144 h, 6 days, EZH2 WT, read-out: Compound A gIC50
Description: as §1, §2, §3

Hs445 = conditions: Homo sapiens, Hs 445, 144 h, 6 days, EZH2 WT, read-out: Compound A gIC50
Description: as §1, §2, §3

HsSullan = conditions: Homo sapiens, 144 h, 6 days, EZH2 WT, read-out: Compound A gIC50
Description: as §1, §2, §3

JM1 = conditions: Homo sapiens, 144 h, 6 days, EZH2 WT, read-out: Compound A gIC50
Description: as §1, §2, §3

Jiyoye = conditions: Homo sapiens, 144 h, 6 days, EZH2 WT, read-out: Compound A gIC50
Description: as §1, §2, §3

Karpass422 = conditions: Homo sapiens, 144 h, 6 days, EZH2 Y641N, read-out: Compound A gIC50
Description: as §1, §2, §3

L428 = conditions: Homo sapiens, L-428, 144 h, 6 days, EZH2 Y641S, read-out: Compound A gIC50
Description: as §1, §2, §3

MJ = conditions: Homo sapiens, 144 h, 6 days, EZH2 WT, read-out: Compound A gIC50
Description: as §1, §2, §3

NAMALWA = conditions: Homo sapiens, 144 h, 6 days, EZH2 WT, read-out: Compound A gIC50
Description: as §1, §2, §3

OCI-LY-19 = conditions: Homo sapiens, OCI-LY19, 144 h, 6 days, EZH2 Y641N, read-out: Compound A gIC50
Description: as §1, §2, §3

P3HR1 = conditions: Homo sapiens, P3HR-1, 144 h, 6 days, EZH2 WT, read-out: Compound A gIC50
Description: as §1, §2, §3

Pfeiffer = conditions: Homo sapiens, 144 h, 6 days, EZH2 A677G, read-out: Compound A gIC50
Description: as §1, §2, §3

RCK8 = conditions: Homo sapiens, 144 h, 6 days, EZH2 WT, read-out: Compound A gIC50
Description: as §1, §2, §3

REC1 = conditions: Homo sapiens, 144 h, 6 days, EZH2 WT, read-out: Compound A gIC50
Description: as §1, §2, §3

RL = conditions: Homo sapiens, 144 h, 6 days, EZH2 Y641N, read-out: Compound A gIC50
Description: as §1, §2, §3

RPMI-6666 = conditions: Homo sapiens, 144 h, 6 days, EZH2 WT, read-out: Compound A gIC50
Description: as §1, §2, §3

Raji = conditions: Homo sapiens, 144 h, 6 days, EZH2 WT, read-out: Compound A gIC50
Description: as §1, §2, §3

Ramos = conditions: Homo sapiens, 144 h, 6 days, EZH2 WT, read-out: Compound A gIC50
Description: as §1, §2, §3

SKM1 = conditions: Homo sapiens, SKM-1, 144 h, 6 days, EZH2 Y641C, read-out: Compound A gIC50
Description: as §1, §2, §3

SU-DHL-10 = conditions: Homo sapiens, SU-DHL10, 144 h, 6 days, EZH2 Y641F, read-out: Compound A gIC50
Description: as §1, §2, §3

SU-DHL-4 = conditions: Homo sapiens, 144 h, 6 days, EZH2 Y641S, read-out: Compound A gIC50
Description: as §1, §2, §3

SU-DHL-5 = conditions: Homo sapiens, 144 h, 6 days, EZH2 WT, read-out: Compound A gIC50
Description: as §1, §2, §3

Toledo = conditions: Homo sapiens, 144 h, 6 days, EZH2 WT, read-out: Compound A gIC50
Description: as §1, §2, §3

U937 = conditions: Homo sapiens, U-937, 144 h, 6 days, EZH2 WT, read-out: Compound A gIC50
Description: as §1, §2, §3

WSU-DLCL-2 = conditions: Homo sapiens, WSUDLCL2, 144 h, 6 days, EZH2 Y641F, read-out: Compound A gIC50
Description: as §1, §2, §3

For `CCCc1cc(C)[nH]c(=O)c1CNC(=O)c1cc(-c2ccc(N3CCN(C)CC3)nc2)cc2c1cnn2C(C)C` [Compound A, 1-(1-methylethyl)-N-[(6-methyl-2-oxo-4-propyl-1,2-dihydro-3-pyridinyl)methyl]-6-[6-(4-methyl-1-piperazinyl)-3-pyridinyl]-1H-indazole-4-carboxamide], which IC50 (1A2) is on record?
The IC50 was 9.26 µM.

And the IC50 (BC-1)?
Its IC50 is 8.82 µM.

What about the IC50 (BC-2) of the same compound?
Its IC50 is 2.18 µM.

What about the IC50 (BC-3) of the same compound?
Its IC50 is 5.28 µM.

What about the IC50 (CA46) of the same compound?
Its IC50 is 8.63 µM.

And the IC50 (CROAP2)?
The IC50 was 11.3 µM.

And the IC50 (CROAP5)?
The IC50 was 6.16 µM.

What about the IC50 (DB) of the same compound?
The IC50 was 9.5 µM.

What about the IC50 (DG75) of the same compound?
Its IC50 is 6.23 µM.

What about the IC50 (DOHH2) of the same compound?
Its IC50 is 6.43 µM.

And the IC50 (Daudi)?
Its IC50 is 13.4 µM.

What about the IC50 (Farage) of the same compound?
Its IC50 is 4.79 µM.

And the IC50 (HDMyZ)?
Its IC50 is 7.21 µM.

And the IC50 (HT)?
Its IC50 is 3.71 µM.

And the IC50 (Hs445)?
Its IC50 is 1.57 µM.

What about the IC50 (HsSullan) of the same compound?
Its IC50 is 3.94 µM.

And the IC50 (JM1)?
The IC50 was 6.66 µM.

And the IC50 (Jiyoye)?
The IC50 was 2.47 µM.

And the IC50 (Karpass422)?
The IC50 was 1.32 µM.

And the IC50 (L428)?
Its IC50 is 3.1 µM.

And the IC50 (MJ)?
The IC50 was 3.28 µM.

What about the IC50 (NAMALWA) of the same compound?
The IC50 was 6.22 µM.

And the IC50 (OCI-LY-19)?
The IC50 was 4.48 µM.

And the IC50 (P3HR1)?
The IC50 was 7.8 µM.

And the IC50 (Pfeiffer)?
The IC50 was 0.189 µM.

What about the IC50 (RCK8) of the same compound?
Its IC50 is 5.56 µM.

What about the IC50 (REC1) of the same compound?
The IC50 was 2.91 µM.

What about the IC50 (RL) of the same compound?
The IC50 was 4.66 µM.

And the IC50 (RPMI-6666)?
The IC50 was 3.1 µM.

What about the IC50 (Raji) of the same compound?
Its IC50 is 6.14 µM.

What about the IC50 (Ramos) of the same compound?
Its IC50 is 3.51 µM.

What about the IC50 (SKM1) of the same compound?
The IC50 was 6.16 µM.

What about the IC50 (SU-DHL-10) of the same compound?
The IC50 was 0.324 µM.

And the IC50 (SU-DHL-4)?
The IC50 was 14 µM.

What about the IC50 (SU-DHL-5) of the same compound?
The IC50 was 3.44 µM.

And the IC50 (Toledo)?
Its IC50 is 21.8 µM.

What about the IC50 (U937) of the same compound?
The IC50 was 7.9 µM.

What about the IC50 (WSU-DLCL-2) of the same compound?
Its IC50 is 3.1 µM.
